pEC50, pKd: −log10 of the molar value.
What was measured:
[1] = target: T1, Human S1P3 receptor (Homo sapiens, UniProt Q99500); assay: Suppression of S1P-induced cellular calcium mobilization in human S1P3 receptor-expression CHO cells (Schild plot, Kd); format: cell-based; details: Fluo3 calcium mobilization by S1P, Schild plot analysis, read-out: S1P3 dissociation constant Kd
T1 construct: expressed in transfected cells; host or cells: CHO cells (Geneticin selection)
Procedure: Suppression Effect of Test Compound Against Cellular Calcium Mobilization of Human S1P3 Receptor-Expression Cell by S1P (Sphingosine 1-Phosphoric Acid)
Human S1P3 receptor-expression CHO cells were subcultured in a Ham's F-12 culture medium containing 10% fetal bovine serum, and 300 μg/mL of Geneticin The human S1P3 receptor-expression CHO cells were subjected to 0.25% trypsinization, then recovered from the dish, and floated in a Ham's F-12 culture medium containing 10% fetal bovine serum, and 300 μg/mL of Geneticin. Then, the human S1P3 receptor-expression CHO cells were seeded into a 96-well black clear bottom plate (BD Falcon Biocoat) at 2.5×10^4/100 μL/well. The human S1P3 receptor-expression CHO cells were then cultivated for […] at 37° C. under 5% CO2 environment. The next day, the wells were washed with a Ham's F-12 culture medium containing 100 μL of 0.1% fatty acid-free bovine serum albumin (BSA). This washing treatment was carried out 3 times. The culture medium was exchanged with a Ham's F-12 culture medium containing 0.1% BSA, and then starved of serum for 6 hours in a CO2 incubator set at 37° C.
The culture medium was thrown away after the 6 hours. Then, 50 μL/well of a Fluo3 loading buffer was added, and the cultures were cultivated for further 1 hour. The Fluo3 loading buffer was prepared as follows. First, equal amounts of Fluo3-AM (Dojindo) and pluronic F-127 (20% DMSO solution, invitrogen) weremixed. Then, the mixture of Fluo3-AM andpluronic F-127 was added into a Hanks-HEPES buffer (Hanks balanced salt solution containing 20 mM HEPES (pH 7.4), 0.1% BSA (fatty acid-free), and 2.5 mM probenecid) to form a Fluo3 loading buffer having a final Fluo3-AM concentration of 4 μM.
After incubating for 1 hour, the wells were washed 3 times with 100 μL of the Hanks-HEPES buffer. 100 μL of the same buffer in which a test compound (0.125 nM, 1.25 nM, 12.5 nM, 125 nM, 1.25 μM) or DMSO had been dissolved were added to the each well, and then incubated for 30 minutes at 37° C. in a microplate spectrophotofluorometer (FLEX Station (Molecular Device Co., Ltd.)). Then, 25 μL of S1P prepared at 5 times the concentration of the final concentration based on serial dilution (final concentration of 0.1 nM, 1 nM, 10 nM, 100 nM, and 1 μM) was added, and the fluorescence based on the Fluo3 due to calcium mobilization was detected and measured at an excitation wavelength of 485 nm and a detection wavelength of 525 nm using an same apparatus. Based on the measurement data, the increase in fluorescence was calculated by subtracting the minimum fluorescence intensity from the maximum fluorescence intensity. The calculated increase in fluorescence was used to perform a curve approximation of the relationship between the S1P concentration and the increase in fluorescence using PRISM 4 software (GraphPad). Based on the results, the EC50 value of the compound-untreated and the EC50 value of the compound-treated at each concentration was calculated. Based on these values, Schild plot analysis was carried out in order to determine the dissociation constant Kd. In Table 1, 1 nmol/L>Kd value≧0.1 nmol/L is indicated as “+”, 0.1 nmol/L>Kd value≧0.01 nmol/L is indicated as “++”, and 0.01 nmol/L>Kd value is indicated as “+++”.

[2] = target: T2, S1P1 receptor (Homo sapiens, UniProt P21453); assay: Antagonistic action on the S1P1 receptor by the method of Experiment Example 1 (Kd); format: cell-based; parameters: expressed in transfected cells
[3] = target: T2, S1P1 receptor; assay: Intracellular calcium mobilization derivative test (agonist action) in human S1P1 receptor-expression CHO cells; format: cell-based; parameters: expressed in transfected cells; host or cells: CHO cells (Geneticin selection); details: agonist mode, up to 10 μM
Procedure: Intracellular Calcium Mobilization Derivative Test of Test Compound Against Human S1P1 Receptor-Expression Cell
Human S1P1 receptor-expression CHO cells were subcultured in a Ham's F-12 culture medium containing 10% fetal bovine serum, and 300 μg/mL of Geneticin. The human S1P1 receptor-expression CHO cells were subjected to 0.25% trypsinization, then recovered from the dish, and floated in a Ham's F-12 culture medium containing 10% fetal bovine serum, and 300 μg/mL of Geneticin. Then, the human S1P1 receptor-expression CHO cells were seeded into a 96-well black clear bottom plate (BD Falcon Biocoat) at 2.5×10^4/100 μL/well. […]
After incubating for 1 hour, the wells were washed 3 times with 100 μL of the Hanks-HEPES buffer. […] Then, 25 μL of the same buffer dissolved with DMSO, or S1P prepared at 5 times the concentration of the final concentration based on serial dilution or the test compound (final concentration of 0.1 nM, 1 nM, 10 nM, 100 nM, 1 μM, and 10 μM) was added, and the fluorescence based on the Fluo3 due to calcium mobilization was detected and measured at an excitation wavelength of 485 nm and a detection wavelength of 525 nm using the same apparatus. Based on the measurement data, the increase in fluorescence was calculated by subtracting the minimum fluorescence intensity from the maximum fluorescence intensity. […]

[4] = test system: Cecal ligation and puncture (CLP) sepsis; assay: Cecal ligation and puncture sepsis model, survival; format: in vivo, Wistar rats; details: CLP rats
Procedure: Cecal Ligation and Puncture Sepsis Model
This model is widely used as a model for polymicrobial abdominal sepsis caused by leakage of intestinal bacteria. The experiment was carried out with reference to the method described in Non-Patent Literature 9 (D. Rittirsch et al., Nature Protocols, 4, 31 (2009)).
Preparation of Cecalligation and Puncture (CLP) Sepsis Mice
Wistar rats (Charles River Laboratories, Japan Inc., male 8 W) were used. The abdominal portion of the rats was cut open under isoflurane anesthesia, and the appendix was exteriorized. The appendix was ligated with sterilized silk thread, and 10 holes were opened in the tip portion of the appendix using an 18 G syringe needle. After the treatment, the appendix was returned to the body, and the wound was sutured. Further, physiological saline was subcutaneously administered at a dose of 30 mL/kg. The rats were then returned to their cages, and observed for 7 days to determine the survival rate.
Test Compound Administration Method
The test compound was continuously administered via a cannula stuck in the femoral vein at a dose of 0.1 mg/kg/hr. Administration of the test compound was started 1 hour after the CLP procedure was finished.

T1 sequence (Q99500 whole entry): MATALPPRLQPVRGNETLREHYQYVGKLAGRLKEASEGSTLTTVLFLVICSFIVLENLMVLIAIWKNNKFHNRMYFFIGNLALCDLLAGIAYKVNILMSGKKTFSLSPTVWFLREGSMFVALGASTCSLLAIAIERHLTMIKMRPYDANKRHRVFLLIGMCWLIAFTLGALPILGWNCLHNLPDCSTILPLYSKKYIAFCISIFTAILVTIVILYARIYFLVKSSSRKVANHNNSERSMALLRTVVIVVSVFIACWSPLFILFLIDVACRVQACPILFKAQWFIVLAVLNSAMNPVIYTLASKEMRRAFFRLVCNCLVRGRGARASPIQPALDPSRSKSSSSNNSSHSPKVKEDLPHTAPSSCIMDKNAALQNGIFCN
T2 sequence (P21453 whole entry): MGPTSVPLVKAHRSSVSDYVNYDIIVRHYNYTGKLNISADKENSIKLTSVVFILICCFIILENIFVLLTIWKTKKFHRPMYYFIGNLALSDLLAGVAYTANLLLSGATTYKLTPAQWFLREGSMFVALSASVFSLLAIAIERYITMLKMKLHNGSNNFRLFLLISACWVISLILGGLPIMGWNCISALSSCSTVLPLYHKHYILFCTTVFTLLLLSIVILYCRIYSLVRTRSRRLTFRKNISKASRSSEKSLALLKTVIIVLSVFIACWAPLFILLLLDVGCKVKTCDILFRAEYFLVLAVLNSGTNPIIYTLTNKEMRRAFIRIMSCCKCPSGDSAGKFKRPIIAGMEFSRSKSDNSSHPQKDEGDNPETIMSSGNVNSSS

| pKd [1] | Compound | pKd [2] | pEC50 [3] | survival lengthening action, Log-rank test p ([4]; 0.1 mg/kg/hr continuous via femoral vein from 1 hour after CLP, vs medium administration group) | survival rate, test subjects alive after 3 days ([4]; 0.1 mg/kg/hr continuous via femoral vein, after 3 days) | survival rate, test subjects alive after 7 days ([4]; 0.1 mg/kg/hr continuous via femoral vein, after 7 days) |
| --- | --- | --- | --- | --- | --- | --- |
| 9.00 to 10.00 | CCC[C@](N)(CCc1ccc(Sc2cc(C#N)ccc2O)cc1Cl)COP(=O)(O)O [compound 35, (S)-2-amino-4-[2-chloro-4-(5-cyano-2-hydroxyphenylthio)Phenyl]-2-propylbutylphosphoric acid monoester] | – | – | – | – | – |
| 9.00 to 10.00 | CCC[C@](N)(CCc1ccc(Sc2cc(C(C)=O)ccc2O)cc1Cl)COP(=O)(O)O [compound 36, (S)-4-[4-(5-acetyl-2-hydroxyphenylthio)-2-chlorophenyl]-2-amin o-2-propylbutylphosphoric acid monoester] | – | – | – | – | – |

More lines, now with the values behind:

| Compound | pKd [1] | pKd [2] | pEC50 [3] | survival lengthening action, Log-rank test p ([4]; 0.1 mg/kg/hr continuous via femoral vein from 1 hour after CLP, vs medium administration group) | survival rate, test subjects alive after 3 days ([4]; 0.1 mg/kg/hr continuous via femoral vein, after 3 days) | survival rate, test subjects alive after 7 days ([4]; 0.1 mg/kg/hr continuous via femoral vein, after 7 days) |
| --- | --- | --- | --- | --- | --- | --- |
| C=CC[C@](N)(CCc1ccc(Sc2cc(OCC)ccc2O)cc1Cl)COP(=O)(O)O [Example 1, (R)-2-allyl-2-amino-4-{2-chloro-4-(5-ethoxy-2-hydroxyphenylthio)phenyl}butylphosphoric acid monoester] | > 11.00 | 8.58 | < 5.00 | – | – | – |
| C=CC[C@](N)(CCc1ccc(Sc2cc(C#N)ccc2O)cc1Cl)COP(=O)(O)O [compound 28, (R)-2-allyl-2-amino-4-{2-chloro-4-(5-cyano-2-hydroxyphenylthio)phenyl}butylphosphoric acid monoester] | 9.00 to 10.00 | – | – | – | – | – |
| N[C@@](CCCO)(CCc1ccc(Sc2cc(C3CC3)ccc2O)cc1Cl)COP(=O)(O)O [compound 19] | 9.00 to 10.00 | – | – | – | – | – |
| CCC[C@](N)(CCc1ccc(Sc2cc(OCC)ccc2O)cc1Cl)COP(=O)(O)O [Example 2, (S)-2-amino-4-{2-chloro-4-(5-ethoxy-2-hydroxyphenylthio)phenyl}-2-propylbutylphosphoric acid monoester] | > 11.00 | 8.80 | < 5.00 | < 0.01 | 25% | 12.5% |

— patent publication US8993543B2, “Diphenyl sulfide derivative and pharmaceutical product which contains same as active ingredient” (Kyorin Pharmaceutical Co., Ltd., priority 2010, dated 2015)
